Values quoted from earlier work in patent US20110275591A1, “COCKTAIL FOR MODULATION OF ALZHEIMER'S DISEASE” (Concourse Health Sciences LLC, priority 2004, published 2011).
Blank lines part the entries; values can stand above or below the molecule they belong to.

Key:
[1] = test system: patients with probable AD; conditions: after 3 and 6 months of treatment; significant differences only for a subset of cognitive tasks
[2] = test system: SAMP8 mouse; conditions: for cognition in T-maze footshock avoidance paradigm and lever press appetitive task: chronic administration
[3] = test system: primary neurons of rat cerebral cortex; conditions: MTT and propidium iodide assays
[4] = test system: cultured hippocampal neurons
[5] = test system: children with autistic spectrum disorders; conditions: 8-week study; all p<0.05
[6] = test system: Alzheimer transgenic mice; conditions: dietary curcumin
[7] = test system: diabetic rats
[8] = co-treatment during 48-hour Aβ exposure, vs controls with no EGCG

Molecule: CC(=O)N[C@@H](CS)C(=O)O [NAC, N-Acetylcysteine, reference compound]
efficacy outcome measures (cognitive tasks) [1]: beneficial results on nearly every outcome measure
cognition in T-maze footshock avoidance paradigm and lever press appetitive task ([2]; 12-month-old SAMP8 mice): improved cognition
blood-brain barrier passage ([2]; SAMP8 mice): crossed the blood-brain barrier and accumulated in the brain

Molecule: O=C(O)CCCCC1CCSS1 (stereo not drawn) [ALA, Alpha lipoic acid]
protection against cytotoxicity induced by Aβ peptide ([3]; Aβ peptide 30 microM): protected cortical neurons against cytotoxicity
protection against cytotoxicity induced by H2O2 ([3]; H2O2 100 microM): protected cortical neurons against cytotoxicity
indexes of oxidative stress (protein carbonyls, TBARS, W/S ratio of MAL-6) ([2]; 12-month-old SAMP8 mice): reversed all three indexes of oxidative stress
cognition in T-maze footshock avoidance paradigm and lever press appetitive task ([2]; 12-month-old SAMP8 mice): improved cognition

levels of caspase C [4, 8]: decreased
Molecule: Epigallocatechin-3-gallate [EGCG]
cell survival ([4]; Aβ-exposed neurons, vs controls): increased survival
levels of malondiadehyde [4, 8]: decreased

Molecule: NCCC(=O)N[C@@H](Cc1cnc[nH]1)C(=O)O [L-carnosine, b-alanyl-L-histidine]
Gilliam Autism Rating Scale and Receptive One-Word Picture Vocabulary test [5]: statistically significant improvements

Molecule: COc1cc(/C=C/C(=O)CC(=O)/C=C/c2ccc(O)c(OC)c2)ccc1O [curcumin, Curcumin]
levels of interleukin-1 beta [6]: decreased levels
levels of oxidized proteins [6]: decreased levels
microgliosis [6]: suppression
lipid peroxidation products (indicators of oxidative stress) ([7]; curcumin fed rats): significant reduction
accumulation of advanced glycation endproducts ([7]; dietary curcumin 200 mg/kg body weight, vs control diabetic rats without curcumin): prevents the accumulation
